The subject of data set [1] is chronic myeloid leukemia (CML). The conditions noted are these: chronic phase CML patients; cited from earlier work.
Data set [2] concerns BaF3 cells expressing wild-type FNTB. Briefly: cells. The conditions noted are these: Mus musculus, BaF3, 336 h, read-out: Cellular IC50.
In data set [3] the test system is BaF3 cells expressing FNTB G241E. The data set is described as follows: cells. Conditions: Mus musculus, BaF3, 336 h, read-out: Cellular IC50.
The conditions of data set [4]: patients, reported (ref. 8); cited from earlier work.
Data set [5] deals with BaF3 cells expressing FNTB C95R. The data set is described as follows: soft agar colony assay (cellular IC50). The conditions noted are these: Mus musculus, BaF3, 336 h, read-out: Cellular IC50.
The test system of data set [6] is BaF3 cells expressing FNTB W106R. The data set is described as follows: soft agar colony assay (cellular IC50). The conditions noted are these: Mus musculus, BaF3, 336 h, read-out: Cellular IC50.
Data set [7] concerns BaF3 cells expressing FNTB P152S. The data set is described as follows: cells. The conditions noted are these: Mus musculus, BaF3, 336 h, read-out: Cellular IC50.
A further data set concerns the target FTase, β subunit W106R (Homo sapiens, UniProt P49356, W106R). The conditions noted are these: all drug concentrations.

For the compound `Cc1ccc(NC(=O)c2ccc(CN3CCN(C)CC3)cc2)cc1Nc1nccc(-c2cccnc2)n1` [imatinib], the response rate entry in data set [1] is “over 90%”.

Take `NC(=O)N1CCC(CC(=O)N2CCC([C@H]3c4ncc(Br)cc4CCc4cc(Cl)cc(Br)c43)CC2)CC1` [Lonafarnib, (+)-4-[2-[4-(8-Chloro-3,10-dibromo-6,11-dihydro-5H-benzo[5,6]cyclohepta[1,2-b]-pyridin-11(R)-yl)-1-piperidinyl]-2-oxo-ethyl]-1-piperidinecarboxamide]: the half-maximal inhibitory concentration (IC50) (usually the midpoint of a concentration-inhibition curve) in data set [2] was 90 nM; in data set [3], 600 nM; in data set [5], 1800 nM; in data set [6], > 10000 nM; in data set [7], 300 nM. In addition, the trough plasma concentrations in data set [4] is 1.5 µM. Besides, the “HDJ2 farnesylation by western blot” value at FTase, β subunit W106R is 100%.
